Converted amounts (≈) assume the structure as drawn. The source made the active and inactive calls. No cut-off for these calls is given here.

Series [1] relates to Botrytis cinerea. In words: Antifungal activity against Botryotinia fuckeliana in Cucumber seedlings assessed as reduction of gray mold diseases compound spraying was performed 3 hr prior to inoculation by preventive effect assay. In kind it is functional, organism-based.
Series [2] deals with Botrytis cinerea. The series is described as follows: Antifungal activity against Botryotinia fuckeliana in Kidney bean assessed as Kidney bean gray mold diseased pods in field trials at 500 ug/ml 3 applications at 9 days intervals (reference value: 21%). The format is functional.
Series [3] concerns Botrytis cinerea. In words: Antifungal activity against Botryotinia fuckeliana in Eggplant seedlings assessed as Eggplant gray mold diseased flowers and fruits in field trials at 200 ug/ml 3 applications at 7 days intervals (reference value: 52.7%). The format is functional.
Series [4] concerns Botrytis cinerea. In words: Antifungal activity against Botryotinia fuckeliana in Eggplant seedlings assessed as Eggplant gray mold diseased flowers and fruits in field trials at 500 ug/ml 3 applications at 7 days intervals (reference value: 52.7%). The format is functional.
The subject of series [5] is Botrytis cinerea. In words: Antifungal activity against Botryotinia fuckeliana in Kidney bean assessed as Kidney bean gray mold diseased pods in field trials at 200 ug/ml 3 applications at 9 days intervals (reference value: 21%). In kind it is functional.
Series [6] deals with Botrytis cinerea. The series is described as follows: Antifungal activity against Botryotinia fuckeliana in Kidney bean assessed as Kidney bean gray mold diseased pods in field trials at 100 ug/ml 3 applications at 9 days intervals (reference value: 21%). The format is functional.
In series [7] the test system is Botrytis cinerea. The series is described as follows: Antifungal activity against Botryotinia fuckeliana in Eggplant seedlings assessed as Eggplant gray mold diseased flowers and fruits in field trials at 100 ug/ml 3 applications at 7 days intervals (reference value: 52.7%). The format is functional.
The next series relates to Cucumis sativus. The series is described as follows: Translaminar activity against kidney bean gray mold assessed as drug transport in Phaseolus vulgaris (kidney bean) from adaxial to abaxial at 100 to 200 ug/ml measured after 3 days. In kind it is ADME, organism-based. Conditions: in vivo, 72 h.
Series [8] relates to Botrytis cinerea. In words: Antifungal activity against Botryotinia fuckeliana in Cucumber seedlings cotyledon stage assessed as suppression of gray mold diseases measured after 7 days by rain fastness activity assay. The format is functional, organism-based.
Series [9] has as its system Botrytis cinerea. In words: Antifungal activity against Botryotinia fuckeliana in Cucumber seedlings assessed as reduction of gray mold diseases. The format is functional, organism-based.
Series [10] deals with Botrytis cinerea. The series is described as follows: Antifungal activity against Botryotinia fuckeliana in Cucumber seedlings assessed as reduction gray mold diseases at 3 ug/ml compound spraying was performed 3 hr prior to inoculation by preventive effect assay. Details: scale not given: the % may be the effect or the level left. The format is functional.
Series [11] deals with Botrytis cinerea. In words: Antifungal activity against Botryotinia fuckeliana in Cucumber seedlings assessed as reduction of gray mold diseases at 3 ug/ml compound spraying was performed 48 hr after inoculation by lesion development inhibitory assay. In kind it is functional. Details: scale not given: the % may be the effect or the level left.
In series [12] the test system is Botrytis cinerea. The series is described as follows: Antifungal activity against Botryotinia fuckeliana in Cucumber seedlings assessed as reduction of gray mold diseases at 3 ug/ml compound spraying was performed 24 hr after inoculation by curative effect assay. The format is functional. Details: scale not given: the % may be the effect or the level left.

Consider `O=C(Nc1ccccc1-c1ccc(Cl)cc1)c1cccnc1Cl` [BOSCALID], for which, in the series on Botrytis cinerea [1], the concentration for a half-maximal effect (EC50) is 0.8 µg/mL (≈ 2.33 µM).
For the molecule `CC1(C(=O)Nc2ccc(O)c(Cl)c2Cl)CCCCC1` [FENHEXAMID], the EC50 in the series with Botrytis cinerea [1] came to 2.13 µg/mL (≈ 7.05 µM).
For the molecule `O=[N+]([O-])c1cc(C(F)(F)F)c(Cl)c([N+](=O)[O-])c1Nc1ncc(C(F)(F)F)cc1Cl` [FLUAZINAM], the Activity in the series with Botrytis cinerea [2] came out at 7.8%.
Turning to `N#Cc1c[nH]cc1-c1cccc2c1OC(F)(F)O2` [FLUDIOXONIL], in the series with Botrytis cinerea [3], the Activity is on record as 16.8%.
`CC12CC1(C)C(=O)N(c1cc(Cl)cc(Cl)c1)C2=O` (stereo not drawn) [PROCYMIDONE]: the figures for the Activity in the series on Botrytis cinerea [2] and in the series with Botrytis cinerea [4] were 4.6% and 12.3%, respectively.
On to `COC(=O)NCc1cc(/C(C)=N/OCc2cccc(C)n2)ccc1Cl` [Pyribencarb], for which the Activity is on record as 3.7% in the series with Botrytis cinerea [5]; 5.3% with Botrytis cinerea [6]; 3.4% in the series on Botrytis cinerea [3]; 9.8% with Botrytis cinerea [7]; 72.1% in the series with Botrytis cinerea [10]; 88.5% with Botrytis cinerea [11]. The Activity with Botrytis cinerea [12] stood at 80.4%. Moreover, the Drug transport entry with Cucumis sativus is reported as “Active”. Also, in the series on Botrytis cinerea [8], the inhibition entry was “Active”. In addition, the values for the EC50 in the series on Botrytis cinerea [9] and in the series with Botrytis cinerea [1] were 0.006 µg/mL (≈ 0.0166 µM) and 0.55 µg/mL (≈ 1.52 µM), respectively. The minimal inhibitory concentration (MIC) in the series on Botrytis cinerea [9] is 0.1 µg/mL (≈ 0.276 µM).

The EC50 is the concentration needed to bring the measured effect to its halfway point. For orientation: MIC means the lowest concentration found to suppress growth.

The values are drawn from ChEMBL document CHEMBL3045919, “Disease-controlling effect of a novel fungicide pyribencarb against Botrytis cinerea” (J Pestic Sci, 2010).
